We go through 10 compounds from US12662491B2 (Redona Therapeutics, Inc., priority 2020, dated 2026).

Molecules are shown by their SMILES.

The first assay concerns the target T1, Zcchc11 enzyme (Homo sapiens, UniProt Q5TAX3).
T1 construct: made in house; host or cells: HEK293 cells (Zcchc11); E. coli Rosetta II (LIN28A)
T1 sequence (Q5TAX3 212-1420): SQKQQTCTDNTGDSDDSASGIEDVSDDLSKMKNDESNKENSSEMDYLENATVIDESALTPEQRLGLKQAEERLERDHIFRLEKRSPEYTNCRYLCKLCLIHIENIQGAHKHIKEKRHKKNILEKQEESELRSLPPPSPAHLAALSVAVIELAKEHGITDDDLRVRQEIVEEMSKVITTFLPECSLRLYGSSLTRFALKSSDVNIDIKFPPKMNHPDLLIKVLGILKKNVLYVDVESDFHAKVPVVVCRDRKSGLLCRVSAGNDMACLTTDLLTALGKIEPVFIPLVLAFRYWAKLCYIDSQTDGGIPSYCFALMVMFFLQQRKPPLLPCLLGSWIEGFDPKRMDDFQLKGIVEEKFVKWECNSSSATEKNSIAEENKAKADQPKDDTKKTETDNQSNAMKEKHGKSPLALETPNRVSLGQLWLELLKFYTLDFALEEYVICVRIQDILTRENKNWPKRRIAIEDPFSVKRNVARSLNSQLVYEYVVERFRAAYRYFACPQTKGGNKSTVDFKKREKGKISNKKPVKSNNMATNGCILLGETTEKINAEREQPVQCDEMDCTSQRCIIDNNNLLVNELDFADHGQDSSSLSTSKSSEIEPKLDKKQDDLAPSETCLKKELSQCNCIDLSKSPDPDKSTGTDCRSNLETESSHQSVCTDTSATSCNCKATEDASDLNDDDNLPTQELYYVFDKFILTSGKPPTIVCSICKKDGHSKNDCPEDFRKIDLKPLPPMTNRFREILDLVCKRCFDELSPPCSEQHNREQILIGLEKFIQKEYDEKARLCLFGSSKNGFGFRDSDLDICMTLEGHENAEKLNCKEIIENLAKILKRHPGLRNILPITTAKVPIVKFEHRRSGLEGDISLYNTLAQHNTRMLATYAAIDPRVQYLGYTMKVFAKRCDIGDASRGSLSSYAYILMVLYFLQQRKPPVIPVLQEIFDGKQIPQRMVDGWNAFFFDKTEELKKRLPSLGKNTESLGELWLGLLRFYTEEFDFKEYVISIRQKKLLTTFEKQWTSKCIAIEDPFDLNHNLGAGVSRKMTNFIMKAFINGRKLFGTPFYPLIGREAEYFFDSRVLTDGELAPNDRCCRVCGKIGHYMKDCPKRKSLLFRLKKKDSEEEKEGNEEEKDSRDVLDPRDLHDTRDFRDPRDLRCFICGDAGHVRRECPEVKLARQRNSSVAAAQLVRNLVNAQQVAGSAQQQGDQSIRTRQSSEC
Briefly: TUTase assay (Zcchc11 assay, Lin28a-dependent polyuridylation of pre-let-7). The class given is biochemical. Conditions: Lin28a-dependent Zcchc11 (Z11) TUTase activity; read-out: Potency Lin28a-dep Z11 IC50. Put shortly:
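Polyuridylation measured as fluorescein loss when a rhodamine-labelled A20 probe anneals to U-tails added to fluorescein pre-let-7 (2 nM). Reaction: truncated Zcchc11 0.2 nM, E. coli-made LIN28A 10 nM, UTP 5 uM, HEPES pH 7.3, room temperature. Initial rates fitted to four-parameter IC50.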
With `O=C(O)c1cn(-c2ccc(O)cc2C(F)(F)F)c2cc(N3CCC[C@@H]3COc3ccccn3)c(F)cc2c1=O` [Compound 164, (R)-6-fluoro-1-(4-hydroxy-2-(trifluoro-methyl)phenyl)-4-oxo-7-(2-((pyridin-2-yloxy)methyl)pyrrolidin-1-yl)-1,4-dihydro-quinoline-3-carboxylic acid], the half-maximal inhibitory concentration (IC50) lay within 10000 to 50000 nM.

Consider `CN(C)C1CN(c2ccc(-n3cc(C(=O)O)c(=O)c4cc(Cl)c(N5CCC5COc5ccccn5)cc43)cn2)C1` (stereo not shown) [Compound 219, 6-chloro-1-[6-[3-(dimethyl-amino)azetidin-1-yl]pyridin-3-yl]-4-oxo-7-[2-[(pyridin-2-yloxy)methyl]azetidin-1-yl]quinoline-3-carboxylic acid], for which the IC50 lay in the range of 1000 to 10000 nM.

Regarding `CN(C)CCn1cc(-n2cc(C(=O)O)c(=O)c3cc(C#N)c(N4CCC[C@@H]4COc4ncccc4Cl)cc32)cn1` [Compound 207], the IC50 is not above 1000 nM.

The assay is the same for the next values; noted with them: Lin28a-dependent Zcchc11 (Z11) TUTase assay; read-out: Potency Lin28a-dep Z11 IC50.
`CN(C)C1CN(c2ccc(-n3cc(C(=O)O)c(=O)c4cc(Cl)c(N5C[C@@H](F)C[C@@H]5COc5ncccc5F)cc43)cn2)C1` [Example 466, 6-chloro-1-(6-(3-(dimethylamino)azetidin-1-yl)pyridin-3-yl)-7-((2R,4S)-4-fluoro-2-(((3-fluoropyridin-2-yl)oxy)methyl)pyrrolidin-1-yl)-4-oxo-1,4-dihydroquinoline-3-carboxylic acid]: the concentration for half-maximal inhibition (IC50) was not above 1000 nM.

Regarding `COc1ccnc(OC[C@H]2C[C@H]3C[C@H]3N2c2cc3c(cc2F)c(=O)c(C(=O)O)cn3-c2ccc(N3CC(N(C)C)C3)nc2)c1C` [Example 681, 1-(6-(3-(dimethylamino)azetidin-1-yl)pyridin-3-yl)-6-fluoro-7-((1R,3R,5R)-3-(((4-methoxy-3-methylpyridin-2-yl)oxy)methyl)-2-azabicyclo[3.1.0]hexan-2-yl)-4-oxo-1,4-dihydroquinoline-3-carboxylic acid], the IC50 is not above 1000 nM.

As for `Cc1cccnc1OC[C@H]1CCCN1c1cc2c(cc1Cl)c(=O)c(C(=O)O)cn2-c1ccc2[nH]cnc2c1` [Example 444, (R)-1-(1H-benzo[d]imidazol-5-yl)-6-chloro-7-(2-(((3-methylpyridin-2-yl)oxy)methyl)pyrrolidin-1-yl)-4-oxo-1,4-dihydroquinoline-3-carboxylic acid], the half-inhibitory concentration (IC50) was not above 1000 nM.

With `CN(C)[C@@H]1CCN(c2ccc(-n3cc(C(=O)O)c(=O)c4cc(C#N)c(N5CCC[C@@H]5COc5ncccc5Cl)cc43)cn2)C1` [Example 563, 7-((R)-2-(((3-chloropyridin-2-yl)oxy)methyl)pyrrolidin-1-yl)-6-cyano-1-(6-((R)-3-(dimethylamino)pyrrolidin-1-yl)pyridin-3-yl)-4-oxo-1,4-dihydroquinoline-3-carboxylic acid], the IC50 was not above 1000 nM.

Take `CN(C)CCn1cc(-n2cc(C(=O)O)c(=O)c3cc(Cl)c(N4CCC[C@@H]4COc4ncccc4Cl)cc32)cn1` [Example 437, (R)-6-chloro-7-(2-(((3-chloropyridin-2-yl)oxy)methyl)pyrrolidin-1-yl)-1-(1-(2-(dimethylamino)ethyl)-1H-pyrazol-4-yl)-4-oxo-1,4-dihydroquinoline-3-carboxylic acid]: the concentration for half-maximal inhibition (IC50) is not above 1000 nM.

Turning to `CN(C)C1CN(c2ccc(-n3cc(C(=O)O)c(=O)c4cc(Cl)c(N5CCC[C@@H]5C[S+]([O-])c5ncccc5Cl)cc43)cn2)C1` (stereo partly drawn) [Example 610, 6-chloro-7-((2R)-2-(((3-chloropyridin-2-yl)sulfinyl)methyl)pyrrolidin-1-yl)-1-(6-(3-(dimethylamino)azetidin-1-yl)pyridin-3-yl)-4-oxo-1,4-dihydroquinoline-3-carboxylic acid], the IC50 is 1000 to 10000 nM.

Turning to `N#Cc1cc2c(=O)c(C(=O)O)cn(-c3cnn(CCN4CCC4)c3)c2cc1N1CCC[C@@H]1COc1ncccc1Cl` [Example 571, (R)-1-(1-(2-(azetidin-1-yl)ethyl)-1H-pyrazol-4-yl)-7-(2-(((3-chloropyridin-2-yl)oxy)methyl)pyrrolidin-1-yl)-6-cyano-4-oxo-1,4-dihydroquinoline-3-carboxylic acid], the IC50 is not above 1000 nM.
